# In paper PMC12211128, “Safety, tolerability, pharmacokinetic and pharmacodynamic effects of the muscarinic M1 positive allosteric modulator VU0467319 for Alzheimer’s disease: a single ascending-dose study in healthy participants” (Alzheimer's Research & Therapy, 2025):
# Assay: Plasma pharmacokinetics, single ascending dose and food effect studies
# Assay type: in vivo, human
# Conditions: for %AUCext / AUC0 − last / AUC0−∞ / CL/F / Cmax / Vz/F / t½: mean (SD); for Tmax: median (min, max)
# From the text: Participants were screened up to 40 days prior to admission to the Vanderbilt Clinical Research Center (CRC). At admission, participants had baseline vital signs, clinical laboratory parameters and ECG were collected. The participants stayed overnight at the CRC, and in the morning performed the pre-dose cognitive and electrophysiological (ERP) batteries. Following completion of these batteries, pre-dose blood and urine for pharmacokinetic (PK) analysis was collected, as well as a second set of baseline vital signs. Participants then received an oral dose of VU319 or placebo with water. VU319 doses were assessed in five dose escalating cohorts of eight participants (60, 120, 240, 400 & 600 mg). The initial dose of 60 mg was chosen by allometric scaling of the highest no observed adverse effect level (NOAEL) in animal species and reduced by a safety factor of 10. The increase in doses following the initial dose of 60 mg followed a modified Fibonacci sequence. In each cohort, six participants received oral VU319 while two participants received placebo. The randomization of participants to either placebo or active VU319 was done using a randomly permuted block procedure at a ratio of 1:3 for each of five dosages of VU319. Participants were required to remain in the CRC for 36 h after dosing for the first four cohorts, and for 48 h for the 600 mg cohort and the food effect study due to the change in PK sampling (discussed more below). Cognitive and ERP batteries were performed five hours post-dose. The decision to escalate to the next dose cohort was determined by review and approval from an independent safety monitoring committee, based on the PK data, as well as the safety and tolerability data from the preceding dose level.
# The food effect study was completed after the first 5 ascending cohorts, participants were dosed once in a fasted state and once following a controlled high fat breakfast. Based on the PK results of the single ascending dose cohorts (see results), the 120 mg dosage group was chosen for the food effect study. This dose was chosen as it was a low-middle dosage in which the pharmacokinetic parameters could move up or down depending on the addition of food. The food effect study consisted of twelve participants, ten of whom received oral 120 mg VU319, while the other two received placebo. The participants received VU319 or placebo on two separate visits to the Vanderbilt CRC. These visits were separated by at least 14 days to allow for washout. On one visit, participants were dosed in a fasted state, while on the other visit, participants were dosed 30 min after eating a controlled high-fat breakfast. The order of the fed/fast conditions were randomized and balanced so that half the cohort were dosed fasting first, and the other half fed first. Post-dose procedures were shifted 30 min to allow for breakfast, but otherwise all study procedures remained the same as in the ascending dose cohorts.
# Blood samples (4 mL) were obtained by direct venipuncture into K2 EDTA tubes at 0.5 h pre-dose and at 0.5, 1, 1.5, 2, 2.5, 3, 5, 7, 9, 12, 24, 26, 28, 36, 48 and 144-hours post-dose. […] Urine samples for PK quantification were collected at pre-dose and 2, 5, 12, 24, 36 and 144-hours post-dose.
# Determination of plasma and urine concentrations of VU319 and metabolite VU0481424 (VU424) was carried out in compliance with Good Laboratory Practice using a validated method at Illinois Institute of Technology Research Institute (IITRI) laboratories. Pharmacokinetic endpoints included the following VU319 parameters for plasma: area under the plasma concentration-time curve (AUC0 − 48); area under the plasma concentration-time curve extrapolated to infinity (AUC0−∞); percentage of the extrapolated area under the plasma concentration-time curve (%AUCextrap); maximum observed plasma concentration (Cmax); time (in hours) at which Cmax occurred (Tmax); clearance (Cl/F); elimination half-life (t1/2) and volume of distribution (Vd/F). […]
# [1] = VU319 120 mg oral, fasted, food effect study
# [2] = VU319 120 mg oral, fed, food effect study
smiles,measurement,setting,value
Cn1cc2c(-c3cc(F)c(CN4Cc5ncccc5C4=O)c(F)c3)cccc2n1 [VU319],"inter-participant variability (CV%) of Cmax, AUC0last, AUC0−∞","120 mg, fasted and fed conditions",24–38%
same,AUC under fed vs fasted conditions,"120 mg, food effect study",insignificantly higher
same,"Cmax under fed vs fasted conditions, higher by","120 mg, food effect study",51%
same,"dose proportionality of systemic exposure (Cmax, AUC0 − last, AUC0−∞)","60 to 600 mg, linear power model",less than dose-proportional
same,%AUCext,"VU319 60 mg oral, SAD",4.81 (6.18) %
same,AUC0 − last,"VU319 60 mg oral, SAD",36.8 (10.9) µg•h/mL
same,AUC0−∞,"VU319 60 mg oral, SAD",39.2 (13.3) µg•h/mL
same,CL/F,"VU319 60 mg oral, SAD",1.73 (0.71) L/h
same,Cmax,"VU319 60 mg oral, SAD",0.725 (0.209) µg/mL
same,Vz/F,"VU319 60 mg oral, SAD",71.8 (20.2) L
same,t½,"VU319 60 mg oral, SAD",31.5 (13.3) h
same,Tmax,"VU319 60 mg oral, SAD","7.00 (2.50, 9.00) h"
same,%AUCext,"VU319 120 mg oral, SAD",6.30 (3.55) %
same,AUC0 − last,"VU319 120 mg oral, SAD",60.1 (13.7) µg•h/mL
same,AUC0−∞,"VU319 120 mg oral, SAD",59.0 (9.07) µg•h/mL
same,CL/F,"VU319 120 mg oral, SAD",2.07 (0.28) L/h
same,Cmax,"VU319 120 mg oral, SAD",0.884 (0.312) µg/mL
same,Vz/F,"VU319 120 mg oral, SAD",107 (6.4) L
same,t½,"VU319 120 mg oral, SAD",55.4 (46.8) h
same,Tmax,"VU319 120 mg oral, SAD","5.00 (2.00, 24.0) h"
same,%AUCext,[1],5.86 (4.51) %
same,AUC0 − last,[1],56.8 (18.0) µg•h/mL
same,AUC0−∞,[1],60.7 (23.3) µg•h/mL
same,CL/F,[1],2.35 (1.15) L/h
same,Cmax,[1],0.985 (0.38) µg/mL
same,Vz/F,[1],94.4 (27.8) L
same,t½,[1],37.4 (15.9) h
same,Tmax,[1],"5.11 (2.50, 48.1) h"
same,%AUCext,[2],5.79 (4.31) %
same,AUC0 − last,[2],62.5 (15.6) µg•h/mL
same,AUC0−∞,[2],66.6 (19.3) µg•h/mL
same,CL/F,[2],2.01 (0.85) L/h
same,Cmax,[2],1.42 (0.344) µg/mL
same,Vz/F,[2],85.3 (16.4) L
same,t½,[2],36.9 (17.0) h
same,Tmax,[2],"5.02 (2.50, 8.97) h"
same,%AUCext,"VU319 240 mg oral, SAD",5.48 (6.31) %
same,AUC0 − last,"VU319 240 mg oral, SAD",63.8 (18.4) µg•h/mL
same,AUC0−∞,"VU319 240 mg oral, SAD",78.3 (15.2) µg•h/mL
same,CL/F,"VU319 240 mg oral, SAD",3.15 (0.58) L/h
same,Cmax,"VU319 240 mg oral, SAD",1.18 (0.425) µg/mL
same,Vz/F,"VU319 240 mg oral, SAD",143 (52.7) L
same,t½,"VU319 240 mg oral, SAD",35.0 (14.5) h
same,Tmax,"VU319 240 mg oral, SAD","9.50 (3.00, 24.0) h"
same,%AUCext,"VU319 400 mg oral, SAD",11.2 (4.73) %
same,AUC0 − last,"VU319 400 mg oral, SAD",132 (47.4) µg•h/mL
same,AUC0−∞,"VU319 400 mg oral, SAD",124 (32.0) µg•h/mL
same,CL/F,"VU319 400 mg oral, SAD",3.42 (0.96) L/h
same,Cmax,"VU319 400 mg oral, SAD",1.72 (0.447) µg/mL
same,Vz/F,"VU319 400 mg oral, SAD",219 (21.6) L
same,t½,"VU319 400 mg oral, SAD",46.2 (9.54) h
same,Tmax,"VU319 400 mg oral, SAD","5.98 (2.02, 48.2) h"
same,%AUCext,"VU319 600 mg oral, SAD",5.73 (2.41) %
same,AUC0 − last,"VU319 600 mg oral, SAD",207 (47.1) µg•h/mL
same,AUC0−∞,"VU319 600 mg oral, SAD",221 (54.6) µg•h/mL
same,CL/F,"VU319 600 mg oral, SAD",2.87 (0.77) L/h
same,Cmax,"VU319 600 mg oral, SAD",2.81 (0.64) µg/mL
same,Vz/F,"VU319 600 mg oral, SAD",123 (23.8) L
same,t½,"VU319 600 mg oral, SAD",30.4 (4.37) h
same,Tmax,"VU319 600 mg oral, SAD","5.01 (2.00, 48.0) h"
same,plasma half-life (initial findings),"first SAD cohorts, reason for changed sampling times",> 30 h
same,dose proportionality of systemic exposure,"higher doses, 240 to 600 mg",approximately proportional to dose
